Here are results for 12 molecules from the Kinase Knowledgebase extract (Sharma et al. 2016).

In assay [1] the target is EGFR (human) (UniProt P00533). As to conditions: sk-br-3.
Assay [2] concerns the target EGFR (mice) (UniProt P00533). The settings on record: swiss 3t3 fibroblast, dose or concentration not given here.
For assay [3], the target named is EGFR (human) (UniProt P00533). The settings on record: a431.
For assay [4], the target named is EGFR (human) (UniProt P00533). The settings on record: mda468.

Structures are written as SMILES.

Chain of EGFR (human) (P00533 whole entry, looked up): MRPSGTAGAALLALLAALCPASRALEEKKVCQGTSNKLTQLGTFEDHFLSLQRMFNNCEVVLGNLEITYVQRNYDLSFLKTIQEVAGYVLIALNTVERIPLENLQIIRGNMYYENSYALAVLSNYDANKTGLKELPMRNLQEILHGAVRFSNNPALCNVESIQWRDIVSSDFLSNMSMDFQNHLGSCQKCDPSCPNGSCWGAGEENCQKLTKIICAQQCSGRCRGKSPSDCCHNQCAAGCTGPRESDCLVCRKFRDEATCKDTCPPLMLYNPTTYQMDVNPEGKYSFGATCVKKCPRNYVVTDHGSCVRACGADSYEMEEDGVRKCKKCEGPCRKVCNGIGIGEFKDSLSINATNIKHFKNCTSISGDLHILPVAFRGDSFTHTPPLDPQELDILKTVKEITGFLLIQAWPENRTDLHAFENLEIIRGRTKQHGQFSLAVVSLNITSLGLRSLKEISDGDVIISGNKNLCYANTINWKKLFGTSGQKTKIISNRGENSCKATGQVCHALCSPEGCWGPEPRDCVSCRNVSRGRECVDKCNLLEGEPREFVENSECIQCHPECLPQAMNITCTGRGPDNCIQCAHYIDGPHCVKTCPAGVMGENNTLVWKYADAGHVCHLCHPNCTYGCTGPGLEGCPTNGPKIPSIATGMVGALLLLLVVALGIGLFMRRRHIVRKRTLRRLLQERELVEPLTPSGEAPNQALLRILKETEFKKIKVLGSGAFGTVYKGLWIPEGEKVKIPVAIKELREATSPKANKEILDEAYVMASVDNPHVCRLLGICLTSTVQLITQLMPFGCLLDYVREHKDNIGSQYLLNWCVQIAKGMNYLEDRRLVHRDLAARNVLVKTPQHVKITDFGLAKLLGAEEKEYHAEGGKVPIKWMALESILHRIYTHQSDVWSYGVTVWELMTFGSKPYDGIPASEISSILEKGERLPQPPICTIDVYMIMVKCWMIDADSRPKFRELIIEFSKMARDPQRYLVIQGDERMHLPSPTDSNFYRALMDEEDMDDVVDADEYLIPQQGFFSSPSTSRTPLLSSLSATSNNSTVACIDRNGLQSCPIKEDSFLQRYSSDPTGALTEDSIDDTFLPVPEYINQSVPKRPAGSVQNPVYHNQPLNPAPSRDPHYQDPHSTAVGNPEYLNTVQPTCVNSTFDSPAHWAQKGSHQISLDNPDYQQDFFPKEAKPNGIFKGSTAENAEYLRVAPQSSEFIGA
Chain of EGFR (mice) (P00533 whole entry, looked up): as above

Take `Nc1ccc2ncnc(Nc3cccc(Br)c3)c2n1`: the IC50 – broadly, the concentration at which inhibition is half-maximal – in assay [1] stood at 2660 nM.
As to `Nc1cc2ncnc(NCc3ccccc3)c2cn1`, in assay [2], the inhibition (as a rule, the percentage by which the read-out fell short of the control) turned out to be 5%.
For `COc1cc2c(Nc3cccc(Br)c3)ncnc2cn1`, in assay [1], the IC50 was less than 10 nM.
On to `NNc1ncc2c(NCc3ccccc3)ncnc2n1`, for which the concentration for half-maximal inhibition (IC50) in assay [3] was 124 nM; in assay [1], less than 10 nM.
Regarding `CNc1cc2c(Nc3cccc(Br)c3)ncnc2cn1`, the IC50 in assay [1] was less than 10 nM; in assay [4], 3 µM.
In assay [1], `Fc1ccc2ncnc(Nc3cccc(Br)c3)c2n1` displayed an IC50 of more than 10000 nM.
With `c1ccc(CNc2ncnc3[nH]ccc23)cc1`, the IC50 in assay [3] and in assay [1] was more than 1000 nM in each case.
Turning to `Nc1cc2ncnc(Nc3cccc(Br)c3)c2cn1`, the IC50 in assay [1] amounted to 800 nM.
With `CN(C)c1cc2c(Nc3cccc(Br)c3)ncnc2cn1`, the IC50 turned out to be 39 nM in assay [1] and 12 µM in assay [4].
In assay [1], `Nc1cc2ncnc(Nc3cccc([N+](=O)[O-])c3)c2cn1` had an IC50 of 1500 nM.
Take `CNc1ccc2ncnc(Nc3cccc(Br)c3)c2n1`: the IC50 in assay [1] was 100 nM.
For the molecule `CN(C)c1ccc2ncnc(Nc3cccc(Br)c3)c2n1`, the IC50 in assay [1] is 71 nM.
